From ChEMBL document CHEMBL2321733, “[3a,4]-Dihydropyrazolo[1,5a]pyrimidines: Novel, Potent, and Selective Phosphatidylinositol-3-kinase β Inhibitors” (ACS Med Chem Lett, 2013) come the findings set out here.

The nature of series [1]: Plasma protein binding in human serum by equilibrium dialysis. The format is ADME, cell-free. The settings on record: read-out: PPB (converted). On the technique in general: In equilibrium dialysis only unbound substance equilibrates across the membrane.
The target of series [2] is T1, Phosphatidylinositol 4,5-bisphosphate 3-kinase catalytic subunit beta isoform (Homo sapiens, UniProt P42338). The series is described as follows: Inhibition of PI3Kbeta human in PTEN-null MDA-MB-468 cells assessed as reduction of AKT phosphorylation at Ser 473 in presence of serum. The format is cell-based.
T1 sequence (P42338 whole entry, canonical isoform): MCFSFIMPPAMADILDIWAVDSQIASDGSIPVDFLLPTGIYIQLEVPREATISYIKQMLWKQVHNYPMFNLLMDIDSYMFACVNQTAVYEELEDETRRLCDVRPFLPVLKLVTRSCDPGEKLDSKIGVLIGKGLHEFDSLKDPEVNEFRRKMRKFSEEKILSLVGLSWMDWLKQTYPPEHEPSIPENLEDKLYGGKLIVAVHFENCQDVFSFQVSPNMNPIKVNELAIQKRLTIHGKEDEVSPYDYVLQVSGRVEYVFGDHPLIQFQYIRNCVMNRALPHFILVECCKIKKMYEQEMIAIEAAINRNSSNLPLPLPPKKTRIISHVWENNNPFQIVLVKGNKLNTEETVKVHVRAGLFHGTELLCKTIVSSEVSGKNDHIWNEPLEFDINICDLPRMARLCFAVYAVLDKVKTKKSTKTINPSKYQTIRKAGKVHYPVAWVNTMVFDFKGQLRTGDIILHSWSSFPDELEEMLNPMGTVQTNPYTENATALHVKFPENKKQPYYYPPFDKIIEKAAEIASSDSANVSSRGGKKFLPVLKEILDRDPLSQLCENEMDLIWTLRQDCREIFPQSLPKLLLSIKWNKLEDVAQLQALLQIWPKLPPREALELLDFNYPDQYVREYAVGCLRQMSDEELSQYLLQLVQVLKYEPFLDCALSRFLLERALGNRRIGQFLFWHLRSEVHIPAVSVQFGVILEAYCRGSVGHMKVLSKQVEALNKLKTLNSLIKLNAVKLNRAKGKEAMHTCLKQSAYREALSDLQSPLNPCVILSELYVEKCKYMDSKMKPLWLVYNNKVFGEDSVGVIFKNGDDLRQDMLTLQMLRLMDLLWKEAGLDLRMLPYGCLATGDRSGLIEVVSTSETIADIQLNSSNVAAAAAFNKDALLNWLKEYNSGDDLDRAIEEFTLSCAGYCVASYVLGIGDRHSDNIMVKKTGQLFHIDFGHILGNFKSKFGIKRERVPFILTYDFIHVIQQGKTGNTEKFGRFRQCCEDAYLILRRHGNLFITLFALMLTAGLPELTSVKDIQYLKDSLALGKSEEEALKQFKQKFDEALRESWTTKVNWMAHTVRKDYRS
A short description of series [3]: Plasma protein binding in mouse serum by equilibrium dialysis. The series is classed as ADME, cell-free. The settings on record: read-out: PPB (converted).
The nature of series [4]: Plasma protein binding in rat serum by equilibrium dialysis. The format is ADME, cell-free. The settings on record: read-out: PPB (converted).
Series [5] addresses T1, Phosphatidylinositol 4,5-bisphosphate 3-kinase catalytic subunit beta isoform. The series is described as follows: Inhibition of PI3Kbeta human in PTEN-null MDA-MB-468 cells assessed as reduction of AKT phosphorylation at Ser 473 in absence of serum. The series is classed as cell-based.
Series [6] has the same target. The series can be described thus: Inhibition of PI3Kbeta (unknown origin).
Series [7] addresses T2, Phosphatidylinositol 4,5-bisphosphate 3-kinase catalytic subunit delta isoform (Homo sapiens, UniProt O00329).
T2 sequence (O00329 whole entry): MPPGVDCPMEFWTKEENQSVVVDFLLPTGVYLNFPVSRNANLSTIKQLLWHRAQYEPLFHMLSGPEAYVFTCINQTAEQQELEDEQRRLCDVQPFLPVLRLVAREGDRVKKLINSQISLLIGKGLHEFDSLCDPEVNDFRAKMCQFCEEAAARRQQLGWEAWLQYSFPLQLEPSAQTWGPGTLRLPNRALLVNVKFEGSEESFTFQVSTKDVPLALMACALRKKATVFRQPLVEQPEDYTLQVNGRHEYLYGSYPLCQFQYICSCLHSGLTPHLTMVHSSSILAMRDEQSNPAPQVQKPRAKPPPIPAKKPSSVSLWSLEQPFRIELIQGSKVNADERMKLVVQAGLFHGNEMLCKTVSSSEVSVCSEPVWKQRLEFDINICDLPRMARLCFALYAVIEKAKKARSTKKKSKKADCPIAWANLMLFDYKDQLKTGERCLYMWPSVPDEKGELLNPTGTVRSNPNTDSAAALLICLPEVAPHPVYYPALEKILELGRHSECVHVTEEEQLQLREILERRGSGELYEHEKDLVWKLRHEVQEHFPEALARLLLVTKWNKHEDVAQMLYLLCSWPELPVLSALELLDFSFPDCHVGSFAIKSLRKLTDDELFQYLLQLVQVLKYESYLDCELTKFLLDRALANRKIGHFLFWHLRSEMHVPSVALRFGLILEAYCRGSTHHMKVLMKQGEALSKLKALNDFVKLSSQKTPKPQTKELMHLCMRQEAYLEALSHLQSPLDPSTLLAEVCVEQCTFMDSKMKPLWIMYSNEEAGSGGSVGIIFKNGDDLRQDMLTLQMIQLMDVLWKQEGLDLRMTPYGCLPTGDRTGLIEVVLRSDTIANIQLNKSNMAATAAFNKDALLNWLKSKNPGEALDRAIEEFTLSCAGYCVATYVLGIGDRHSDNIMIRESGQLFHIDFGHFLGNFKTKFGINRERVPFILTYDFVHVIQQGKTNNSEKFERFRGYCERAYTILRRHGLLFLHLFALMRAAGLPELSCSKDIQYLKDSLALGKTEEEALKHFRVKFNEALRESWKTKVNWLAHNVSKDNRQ
The series can be described thus: Inhibition of PI3Kdelta (unknown origin).

Series [8] has as its target Phosphatidylinositol 4,5-bisphosphate 3-kinase catalytic subunit gamma isoform (Homo sapiens, UniProt P48736). The series can be described thus: Inhibition of PI3Kgamma (unknown origin).
Series [9] has as its target Phosphatidylinositol 4,5-bisphosphate 3-kinase catalytic subunit alpha isoform (Homo sapiens, UniProt P42336). The series can be described thus: Inhibition of PI3Kalpha (unknown origin).
In series [10] the target is T1, Phosphatidylinositol 4,5-bisphosphate 3-kinase catalytic subunit beta isoform. The series is described as follows: Inhibition of PI3Kbeta human in PTEN wild type HCC1954 cells assessed as reduction of AKT phosphorylation at Ser 473. The format is cell-based.

Some results are limits rather than exact numbers.

Chain of Phosphatidylinositol 4,5-bisphosphate 3-kinase catalytic subunit gamma isoform (P48736 whole entry, canonical isoform): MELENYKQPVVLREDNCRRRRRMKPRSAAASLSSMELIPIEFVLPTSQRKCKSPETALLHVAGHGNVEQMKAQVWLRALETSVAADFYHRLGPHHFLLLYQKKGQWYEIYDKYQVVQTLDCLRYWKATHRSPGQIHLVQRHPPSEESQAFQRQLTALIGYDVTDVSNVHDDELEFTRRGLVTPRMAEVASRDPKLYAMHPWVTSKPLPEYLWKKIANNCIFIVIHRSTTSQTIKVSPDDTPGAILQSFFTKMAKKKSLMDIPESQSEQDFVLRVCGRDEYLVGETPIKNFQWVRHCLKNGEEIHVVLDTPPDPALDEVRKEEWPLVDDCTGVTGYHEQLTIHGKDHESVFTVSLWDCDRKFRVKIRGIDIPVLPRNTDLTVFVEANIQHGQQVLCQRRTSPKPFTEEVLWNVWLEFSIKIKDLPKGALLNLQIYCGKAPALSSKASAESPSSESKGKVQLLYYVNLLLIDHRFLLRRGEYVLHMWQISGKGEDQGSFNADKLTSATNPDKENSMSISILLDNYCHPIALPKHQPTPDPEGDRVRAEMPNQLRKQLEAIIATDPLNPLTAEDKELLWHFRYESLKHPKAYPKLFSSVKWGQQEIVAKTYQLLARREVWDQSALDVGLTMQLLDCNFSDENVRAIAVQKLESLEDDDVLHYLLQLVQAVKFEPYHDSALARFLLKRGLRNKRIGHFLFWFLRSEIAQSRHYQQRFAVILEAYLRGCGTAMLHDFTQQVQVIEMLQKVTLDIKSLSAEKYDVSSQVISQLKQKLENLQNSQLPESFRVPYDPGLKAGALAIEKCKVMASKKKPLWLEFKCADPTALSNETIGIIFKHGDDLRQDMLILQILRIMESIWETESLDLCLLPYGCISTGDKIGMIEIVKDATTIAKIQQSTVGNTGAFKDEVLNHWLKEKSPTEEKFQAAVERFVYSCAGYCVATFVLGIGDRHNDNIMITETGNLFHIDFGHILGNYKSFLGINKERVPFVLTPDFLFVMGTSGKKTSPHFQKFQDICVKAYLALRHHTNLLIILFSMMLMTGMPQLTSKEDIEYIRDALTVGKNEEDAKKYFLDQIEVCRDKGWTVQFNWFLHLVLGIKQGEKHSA
Chain of Phosphatidylinositol 4,5-bisphosphate 3-kinase catalytic subunit alpha isoform (P42336 whole entry, canonical isoform): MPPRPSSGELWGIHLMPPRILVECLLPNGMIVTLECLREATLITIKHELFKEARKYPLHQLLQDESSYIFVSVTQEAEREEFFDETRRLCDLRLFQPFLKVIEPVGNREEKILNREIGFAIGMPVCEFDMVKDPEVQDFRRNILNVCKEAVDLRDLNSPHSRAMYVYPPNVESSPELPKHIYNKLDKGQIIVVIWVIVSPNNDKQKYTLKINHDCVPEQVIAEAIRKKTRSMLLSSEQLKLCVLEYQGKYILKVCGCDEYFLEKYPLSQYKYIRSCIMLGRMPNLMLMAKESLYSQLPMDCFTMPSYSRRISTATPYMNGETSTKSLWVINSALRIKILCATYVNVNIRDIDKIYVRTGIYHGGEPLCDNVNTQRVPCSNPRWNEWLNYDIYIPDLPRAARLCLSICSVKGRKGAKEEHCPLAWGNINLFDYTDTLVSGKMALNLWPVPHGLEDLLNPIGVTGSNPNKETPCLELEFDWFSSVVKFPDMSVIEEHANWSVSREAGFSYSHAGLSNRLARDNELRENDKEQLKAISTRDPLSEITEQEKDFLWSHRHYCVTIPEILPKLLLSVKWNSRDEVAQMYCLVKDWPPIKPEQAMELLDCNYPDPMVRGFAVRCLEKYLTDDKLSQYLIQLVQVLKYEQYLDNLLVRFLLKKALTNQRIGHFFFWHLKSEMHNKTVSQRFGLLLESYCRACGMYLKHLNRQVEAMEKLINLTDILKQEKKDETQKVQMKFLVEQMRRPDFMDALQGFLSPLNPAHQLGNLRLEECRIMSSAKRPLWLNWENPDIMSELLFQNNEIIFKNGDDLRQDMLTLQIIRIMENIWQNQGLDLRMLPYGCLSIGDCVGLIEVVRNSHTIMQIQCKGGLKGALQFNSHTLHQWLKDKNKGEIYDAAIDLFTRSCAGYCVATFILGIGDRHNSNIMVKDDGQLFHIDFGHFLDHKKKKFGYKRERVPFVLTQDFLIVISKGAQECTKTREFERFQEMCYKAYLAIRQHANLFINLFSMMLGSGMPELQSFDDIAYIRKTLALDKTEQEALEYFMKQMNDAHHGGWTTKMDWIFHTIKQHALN

What is called EC50 is the concentration needed to bring the measured effect to its halfway point. The IC50 is the concentration needed to halve the response being measured. High values mean a need for much substance, low ones inhibition by little substance. For `Cc1c(Cn2c(C)nc(=O)c3sc(N4CCOCC4)nc32)cccc1C(F)(F)F`, the values for the fraction unbound in series [1], in series [3] and in series [4] were 0.137, 0.118 and 0.254, respectively. The EC50 in series [2] is 15.8 nM; in series [5], 6.31 nM. Further, in series [6], the 50% inhibitory concentration (IC50) is 0.631 nM.
On to `Cc1nn2c(O)cc(N3CCOC(C)C3)nc2c1Cc1cccc(C(F)(F)F)c1C` (configuration not stated), for which the IC50 is 15.8 nM in series [7], 398 nM in series [8], 200 nM in series [9] and 2.51 nM in series [6].
Regarding `CCc1nn2c(O)cc(C3CCOCC3)nc2c1Cc1cccc(Cl)c1Cl`, the IC50 in series [7] was > 398 nM; in series [8], > 7940 nM; in series [9] it was > 1580 nM; in series [6] it was 12.6 nM.
As for `Cc1nn2ccc(C3CCOCC3)nc2c1Cc1cccc(C(F)(F)F)c1C`, the IC50 in [7] was > 501 nM; in series [8] it was 2000 nM; in series [9] it was > 1580 nM; in [6], 794 nM.
For the compound `Cc1nn2c(N)cc(N3CCOCC3)nc2c1Cc1cccc(C(F)(F)F)c1C`, the concentration for half-maximal inhibition (IC50) in series [7] was 158 nM; in series [8], > 1480 nM; in [9] it was > 2000 nM; in series [6] it was 39.8 nM. Further, the figures for the EC50 in series [2] and in [10] were 1000 nM and > 31600 nM, respectively.
Consider `Cc1c(Cc2cnn3c(O)cc(N4CCOCC4)nc23)cccc1C(F)(F)F`, for which the IC50 in series [7] was 20 nM; in series [8] it was 501 nM; in [9] it was 316 nM; in series [6] it was 5.01 nM. Further, the results for the concentration giving a half-maximal response (EC50) in [2], in [10] and in [5] were 1000 nM, > 31600 nM and 63.1 nM, respectively.
Consider `CC(=O)Nc1cc(N2CCOCC2)nc2c(Cc3cccc(C(F)(F)F)c3C)c(C)nn12`, for which the IC50 in series [7] is > 631 nM; in series [8] it was > 5010 nM; in series [9], > 2000 nM; in [6], > 1260 nM.
For `Cc1nn2c(C#N)cc(N3CCOCC3)nc2c1Cc1cccc(C(F)(F)F)c1C`, the IC50 in series [7] is > 251 nM; in series [8] it was > 3160 nM; in series [9] it was > 1000 nM; in [6], > 1260 nM.
`Cc1c(Cc2cnn3c(O)cc(-c4ccncc4)nc23)cccc1C(F)(F)F`: the IC50 was 100 nM in series [7], 316 nM in [8], 501 nM in series [9] and 2.51 nM in series [6]. Moreover, the figures for the half-maximal effective concentration (EC50) in [2], in series [10] and in series [5] were 3160 nM, > 31600 nM and 25.1 nM, respectively.
As for `Cc1nn2c(NC(N)=O)cc(N3CCOCC3)nc2c1Cc1cccc(C(F)(F)F)c1C`, the IC50 is > 631 nM in series [7], > 6310 nM in [8], > 6310 nM in [9] and 20 nM in series [6]. The half-maximal effective concentration (EC50) in series [2] and in series [10] was > 31600 nM each time.
Take `Cc1nn2c(NO)cc(C3CCOCC3)nc2c1Cc1cccc(C(F)(F)F)c1C`: the IC50 is 251 nM in series [7], > 6310 nM in series [8], > 1580 nM in [9] and 39.8 nM in series [6].
Turning to `Oc1cc(C2CCOCC2)nc2c(Cc3cccc(Cl)c3Cl)c(C(F)(F)F)nn12`, the IC50 in [7] was 100 nM; in series [8], > 6310 nM; in series [9] it was 2510 nM; in series [6] it was 6.31 nM.
With `COc1nn2c(O)cc(-c3ccncc3)nc2c1Cc1cccc(Cl)c1Cl`, the IC50 in [7] was 25.1 nM; in series [8], 501 nM; in series [9], 158 nM; in [6], 1.26 nM. Further, the figures for the EC50 in series [2], in series [10] and in [5] were 12600 nM, > 31600 nM and 158 nM, respectively.
For the compound `Cc1c(Cc2cnn3c(Cl)cc(N4CCOCC4)nc23)cccc1C(F)(F)F`, the half-maximal inhibitory concentration (IC50) in [7] is > 631 nM; in series [8], > 5010 nM; in series [9], > 5010 nM; in series [6] it was 316 nM.
On to `Cc1nn2c(C(=O)O)cc(N3CCOCC3)nc2c1Cc1cccc(C(F)(F)F)c1C`, for which the IC50 in series [7] was 39.8 nM; in series [8], > 6310 nM; in series [9], 1580 nM; in series [6], 5.01 nM. Moreover, the EC50 in series [2] was 1000 nM; in series [10], > 31600 nM.
On to `Oc1cc(N2CCOCC2)nc2c(Cc3cccc(Cl)c3Cl)c(C(F)(F)F)nn12`, for which the IC50 in [7] is 6.31 nM; in series [8] it was 251 nM; in [9], 200 nM; in [6], 0.398 nM. Also, the EC50 in series [2] is 5010 nM; in [10] it was > 31600 nM.
For `Cc1nn2c(NCCO)cc(C3CCOCC3)nc2c1Cc1cccc(C(F)(F)F)c1C`, the IC50 was > 631 nM in series [7], 5010 nM in series [8], > 1580 nM in series [9] and 1260 nM in series [6].
Turning to `Cc1nn2c(O)cc(N3CCOCC3=O)nc2c1Cc1cccc(C(F)(F)F)c1C`, the IC50 in [7] was 158 nM; in series [8] it was 3160 nM; in series [9], 251 nM; in series [6], 316 nM.
In the same order, the values of `Oc1cc(-c2ccncc2)nc2c(Cc3cccc(Cl)c3Cl)c(C(F)(F)F)nn12` are 79.4 nM, 398 nM, 631 nM and 2.51 nM.
Take `Nc1nn2c(O)cc(C3CCOCC3)nc2c1Cc1cccc(Cl)c1Cl`: the IC50 was 631 nM in [7], > 3980 nM in series [8], 1580 nM in [9] and 7.94 nM in [6]. Besides, the EC50 in [2] was 2000 nM; in [10], > 31600 nM.
As to `Cc1nn2c(C(N)=O)cc(N3CCOCC3)nc2c1Cc1cccc(C(F)(F)F)c1C`, the IC50 is > 631 nM in series [7], > 6310 nM in [8], > 6310 nM in series [9] and 25.1 nM in [6]. In addition, the EC50 in series [2] and in [10] was > 31600 nM in each case.
Consider `CNc1cc(N2CCOCC2)nc2c(Cc3cccc(C(F)(F)F)c3C)c(C)nn12`, for which the IC50 in [7] is > 631 nM; in series [8], > 6310 nM; in series [9], > 1580 nM; in series [6] it was > 3160 nM.
On to `COc1cc(N2CCOCC2)nc2c(Cc3cccc(C(F)(F)F)c3C)cnn12`, for which the concentration for half-maximal inhibition (IC50) is > 631 nM in series [7], > 5010 nM in series [8], > 5010 nM in series [9] and 1000 nM in series [6].
Turning to `Cc1c(Cc2c(=O)[nH]n3c(=O)cc(C4CCOCC4)[nH]c23)cccc1C(F)(F)F`, the IC50 in series [7] was > 631 nM; in series [8], > 5010 nM; in series [9], > 2000 nM; in series [6] it was 63.1 nM.
Take `Cc1nn2c(O)cc(N3CCOCC3)nc2c1Cc1cccc2ccccc12`: the IC50 was 25.1 nM in series [7], 631 nM in series [8], 316 nM in series [9] and 1 nM in [6]. Also, the figures for the EC50 in series [2] and in series [10] were 1000 nM and > 31600 nM, respectively.
As to `CCc1nn2c(O)cc(-c3ccncc3)nc2c1Cc1cccc(Cl)c1Cl`, the IC50 in series [7] is 20 nM; in [8] it was 398 nM; in series [9], 158 nM; in series [6], 0.631 nM. For the same compound, the 50% effective concentration (EC50) is 20000 nM in series [2] and > 31600 nM in series [10].
Regarding `Cc1nn2c(O)cc(C3CCOCC3)nc2c1Cc1cccc(C(F)(F)F)c1C`, the IC50 in series [7] is 126 nM; in series [8] it was 2510 nM; in series [9], > 1580 nM; in [6], 3.98 nM. The concentration giving a half-maximal response (EC50) was 10000 nM in [2] and > 31600 nM in [10].
